In US10112906B2, “1-aryl-3-alkylpyrazole insecticides” (E. I. DU PONT DE NEMOURS AND COMPANY, priority 2013, dated 2018):

Assays:
Type in all cases: in vivo
[1] = tested on: fall armyworm (Spodoptera frugiperda (J. E. Smith)); test: Test B: control of fall armyworm, foliar spray on corn (maize) plant; settings: 1-day-old larvae, assessed after 6 days
Procedure: (§1) Test compounds were formulated using a solution containing 10% acetone, 90% water and 300 ppm X-77® Spreader Lo-Foam Formula non-ionic surfactant containing alkylarylpolyoxyethylene, free fatty acids, glycols and isopropanol (Loveland Industries, Inc. Greeley, Colo., USA). The formulated compounds were applied in 1 mL of liquid through a SUJ2 atomizer nozzle with ⅛ JJ custom body (Spraying Systems Co. Wheaton, Ill., USA) positioned 1.27 cm (0.5 inches) above the top of each test unit. Test compounds were sprayed at the rates indicated, and each test was replicated three times.
For evaluating control of fall armyworm (Spodoptera frugiperda (J. E. Smith)) the test unit consisted of a small open container with a 4-5-day-old corn (maize) plant inside. This was pre-infested with 10-15 1-day-old larvae on a piece of insect diet.
(§2) Test compounds were formulated and sprayed at 250 and/or 50 ppm. After spraying of the formulated test compound, the test units were maintained in a growth chamber for 6 days at 25° C. and 70% relative humidity. Plant feeding damage was then visually assessed based on foliage consumed, and larvae were assessed for mortality.

[2] = tested on: diamondback moth (Plutella xylostella (L.)); test: Test A: control of diamondback moth, foliar spray on mustard plant; settings: neonate larvae, assessed after 6 days
Procedure: as §1
For evaluating control of diamondback moth (Plutella xylostella (L.)) the test unit consisted of a small open container with a 12-14-day-old mustard plant inside. This was pre-infested with ˜50 neonate larvae that were dispensed into the test unit via corn cob grits using an inoculator. The larvae moved onto the test plant after being dispensed into the test unit.
as §2, with “compound, each test unit was allowed to dry for 1 hour and then a black, screened cap was placed on top. The” for “compound, the”, “were held for 6 days” for “were maintained”, “chamber” for “chamber for 6 days”

[3] = tested on: potato leafhopper (Empoasca fabae (Harris)); test: Test D: control of potato leafhopper through contact and/or systemic means; settings: 144 h, Soleil bean plant, adults, assessed after 6 days; for mortality at 250 ppm: sprayed at 250 ppm
Procedure: as §1
For evaluating control of potato leafhopper (Empoasca fabae (Harris)) through contact and/or systemic means, the test unit consisted of a small open container with a 5-6-day-old Soleil bean plant (primary leaves emerged) inside. White sand was added to the top of the soil, and one of the primary leaves was excised prior to application of the test compound.
Test compounds were formulated and sprayed at 250 and/or 50 ppm. After spraying of the formulated test compound, the test units were allowed to dry for 1 hour before they were post-infested with 5 potato leafhoppers (18-to-21-day-old adults). A black, screened cap was placed on the top of the test unit, and the test units were held for 6 days in a growth chamber at 20° C. and 70% relative humidity. Each test unit was then visually assessed for insect mortality.

[4] = tested on: corn planthopper (Peregrinus maidis (Ashmead)); test: Test C: control of corn planthopper through contact and/or systemic means; settings: 144 h, corn (maize) plant, nymphs, assessed after 6 days
Procedure: as §1
For evaluating control of corn planthopper (Peregrinus maidis (Ashmead)) through contact and/or systemic means, the test unit consisted of a small open container with a 3-4-day-old corn (maize) plant inside. White sand was added to the top of the soil prior to application of the test compound.
Test compounds were formulated and sprayed at 250 and/or 50 ppm. After spraying of the formulated test compound, the test units were allowed to dry for 1 h before they were post-infested with ˜15-20 nymphs (18-to-21-day-old). A black, screened cap was placed on the top of each test unit, and the test units were held for 6 days in a growth chamber at 22-24° C. and 50-70% relative humidity. Each test unit was then visually assessed for insect mortality.

2-[3-cyclohexyl-4-[[4-(trifluoromethyl)-1-piperidinyl]methyl]-1H-pyrazol-1-yl]-4-(trifluoromethyl)pyridine [Compound 23]
control efficacy (40% or less feeding damage and/or 100% mortality) ([1]; sprayed at 50 ppm): very good to excellent levels of control efficacy
control efficacy (40% or less feeding damage and/or 100% mortality) ([1]; sprayed at 250 ppm): very good to excellent levels of control efficacy
control efficacy (40% or less feeding damage and/or 100% mortality) ([2]; sprayed at 50 ppm): very good to excellent levels of control efficacy
control efficacy (40% or less feeding damage and/or 100% mortality) ([2]; sprayed at 250 ppm): very good to excellent levels of control efficacy

N#CC1CCN(Cc2cn(-c3ccc(Cl)c(Cl)c3)nc2Cc2ccccc2F)CC1 [Compound 1]
control efficacy (40% or less feeding damage and/or 100% mortality) ([2]; sprayed at 50 ppm): very good to excellent levels of control efficacy

N#CC1CCN(Cc2cn(-c3ccc(Cl)c(Cl)c3)nc2Cc2ccc(F)cc2)CC1 [Compound 2]
control efficacy (40% or less feeding damage and/or 100% mortality) ([2]; sprayed at 50 ppm): very good to excellent levels of control efficacy

N#CC1CCN(Cc2cn(-c3ccc(Cl)cc3)nc2C=CCl)CC1 [Compound 9]
control efficacy (40% or less feeding damage and/or 100% mortality) ([1]; sprayed at 50 ppm): very good to excellent levels of control efficacy
control efficacy (40% or less feeding damage and/or 100% mortality) ([1]; sprayed at 250 ppm): very good to excellent levels of control efficacy

N#CC1CCN(Cc2cn(-c3ccc(Cl)c(Cl)c3)nc2C2CC2)CC1 [Compound 12]
control efficacy (40% or less feeding damage and/or 100% mortality) ([2]; sprayed at 50 ppm): very good to excellent levels of control efficacy

CC(=O)N[C@H]1CCN(Cc2cn(-c3ccc(Cl)c(Cl)c3)nc2C2CC2)C1 [Compound 13]
control efficacy (40% or less feeding damage and/or 100% mortality) ([2]; sprayed at 50 ppm): very good to excellent levels of control efficacy

CCc1nn(-c2ccc(Cl)c(Cl)c2)cc1CN1CCC(C#N)CC1 [Compound 14]
control efficacy (40% or less feeding damage and/or 100% mortality) ([2]; sprayed at 50 ppm): very good to excellent levels of control efficacy

C=Cc1nn(-c2ccc(Cl)c(Cl)c2)cc1CN1CCC(C#N)CC1 [Compound 15]
control efficacy (40% or less feeding damage and/or 100% mortality) ([2]; sprayed at 50 ppm): very good to excellent levels of control efficacy

N#CC1CCN(Cc2cn(-c3ccc(Cl)c(Cl)c3)nc2C2CCCCC2)CC1 [Compound 19]
control efficacy (40% or less feeding damage and/or 100% mortality) ([1]; sprayed at 50 ppm): very good to excellent levels of control efficacy
control efficacy (40% or less feeding damage and/or 100% mortality) ([1]; sprayed at 250 ppm): very good to excellent levels of control efficacy

O=C(NC1CCN(Cc2cn(-c3ccc(Cl)c(Cl)c3)nc2C2CCCCC2)C1)C1CC1 (centres unmarked) [Compound 20]
control efficacy (40% or less feeding damage and/or 100% mortality) ([1]; sprayed at 250 ppm): very good to excellent levels of control efficacy
control efficacy (40% or less feeding damage and/or 100% mortality) ([2]; sprayed at 250 ppm): very good to excellent levels of control efficacy

Cc1nn(-c2ccc(Cl)c(Cl)c2)cc1CN1CCC(C#N)CC1 [Compound 21]
control efficacy (40% or less feeding damage and/or 100% mortality) ([2]; sprayed at 50 ppm): very good to excellent levels of control efficacy
control efficacy (40% or less feeding damage and/or 100% mortality) ([2]; sprayed at 250 ppm): very good to excellent levels of control efficacy

Cc1nn(-c2ccc(Cl)c(Cl)c2)cc1CN1CCC(NC(=O)C2CC2)C1 (centres unmarked) [Compound 22]
control efficacy (40% or less feeding damage and/or 100% mortality) ([2]; sprayed at 50 ppm): very good to excellent levels of control efficacy
control efficacy (40% or less feeding damage and/or 100% mortality) ([2]; sprayed at 250 ppm): very good to excellent levels of control efficacy

FC(F)(F)C1CCN(Cc2cn(-c3ccc(Cl)c(Cl)c3)nc2C2CCC2)CC1 [Compound 28]
control efficacy (40% or less feeding damage and/or 100% mortality) ([1]; sprayed at 50 ppm): very good to excellent levels of control efficacy
control efficacy (40% or less feeding damage and/or 100% mortality) ([1]; sprayed at 250 ppm): very good to excellent levels of control efficacy
control efficacy (40% or less feeding damage and/or 100% mortality) ([2]; sprayed at 50 ppm): very good to excellent levels of control efficacy
control efficacy (40% or less feeding damage and/or 100% mortality) ([2]; sprayed at 250 ppm): very good to excellent levels of control efficacy

C[Si](C)(C)C#Cc1nn(-c2ccc(Cl)c(Cl)c2)cc1CN1CCC(C#N)CC1 [Compound 29]
control efficacy (40% or less feeding damage and/or 100% mortality) ([1]; sprayed at 50 ppm): very good to excellent levels of control efficacy

C#Cc1nn(-c2ccc(Cl)c(Cl)c2)cc1CN1CCC(C#N)CC1 [Compound 31]
control efficacy (40% or less feeding damage and/or 100% mortality) ([2]; sprayed at 50 ppm): very good to excellent levels of control efficacy

N#CC1CCN(Cc2cn(-c3ccc(Cl)c(Cl)c3)nc2C#Cc2ccccc2)CC1 [Compound 32]
control efficacy (40% or less feeding damage and/or 100% mortality) ([2]; sprayed at 50 ppm): very good to excellent levels of control efficacy

N#CC1CCN(Cc2cn(-c3cc(C(F)(F)F)ccn3)nc2C2CC2)CC1 [Compound 35]
control efficacy (40% or less feeding damage and/or 100% mortality) ([1]; sprayed at 50 ppm): very good to excellent levels of control efficacy
control efficacy (40% or less feeding damage and/or 100% mortality) ([1]; sprayed at 250 ppm): very good to excellent levels of control efficacy
control efficacy (40% or less feeding damage and/or 100% mortality) ([2]; sprayed at 50 ppm): very good to excellent levels of control efficacy
control efficacy (40% or less feeding damage and/or 100% mortality) ([2]; sprayed at 250 ppm): very good to excellent levels of control efficacy

FC(F)(F)C1CCN(Cc2cn(-c3ccc(Cl)cn3)nc2C2CCCC2)CC1 [Compound 36]
control efficacy (40% or less feeding damage and/or 100% mortality) ([1]; sprayed at 50 ppm): very good to excellent levels of control efficacy
control efficacy (40% or less feeding damage and/or 100% mortality) ([1]; sprayed at 250 ppm): very good to excellent levels of control efficacy
control efficacy (40% or less feeding damage and/or 100% mortality) ([2]; sprayed at 50 ppm): very good to excellent levels of control efficacy
control efficacy (40% or less feeding damage and/or 100% mortality) ([2]; sprayed at 250 ppm): very good to excellent levels of control efficacy

FC(F)(F)C1CCN(Cc2cn(-c3cc(Cl)ccn3)nc2C2CCCC2)CC1 [Compound 37]
control efficacy (40% or less feeding damage and/or 100% mortality) ([1]; sprayed at 50 ppm): very good to excellent levels of control efficacy
control efficacy (40% or less feeding damage and/or 100% mortality) ([1]; sprayed at 250 ppm): very good to excellent levels of control efficacy
control efficacy (40% or less feeding damage and/or 100% mortality) ([2]; sprayed at 50 ppm): very good to excellent levels of control efficacy
control efficacy (40% or less feeding damage and/or 100% mortality) ([2]; sprayed at 250 ppm): very good to excellent levels of control efficacy

N#CC1CCN(Cc2cn(-c3cc(Cl)ccn3)nc2C2CCCC2)CC1 [Compound 38, 1-[[1-(4-chloro-2-pyridinyl)-3-cyclopentyl-1H-pyrazol-4-yl]methyl]-4-piperidinecarbonitrile]
mortality at 250 ppm [3]: ≥ 80%
control efficacy (40% or less feeding damage and/or 100% mortality) ([1]; sprayed at 50 ppm): very good to excellent levels of control efficacy
control efficacy (40% or less feeding damage and/or 100% mortality) ([1]; sprayed at 250 ppm): very good to excellent levels of control efficacy
control efficacy (40% or less feeding damage and/or 100% mortality) ([2]; sprayed at 50 ppm): very good to excellent levels of control efficacy
control efficacy (40% or less feeding damage and/or 100% mortality) ([2]; sprayed at 250 ppm): very good to excellent levels of control efficacy

N#CC1CCN(Cc2cn(-c3cc(C(F)(F)F)ccn3)nc2C2CCC2)CC1 [Compound 46, 1-[[3-cyclobutyl-1-[4-(trifluoromethyl)-2-pyridinyl]-1H-pyrazol-4-yl]methyl]-4-piperidinecarbonitrile]
mortality at 250 ppm [3]: ≥ 80%
control efficacy (40% or less feeding damage and/or 100% mortality) ([1]; sprayed at 50 ppm): very good to excellent levels of control efficacy
control efficacy (40% or less feeding damage and/or 100% mortality) ([1]; sprayed at 250 ppm): very good to excellent levels of control efficacy
control efficacy (40% or less feeding damage and/or 100% mortality) ([2]; sprayed at 50 ppm): very good to excellent levels of control efficacy
control efficacy (40% or less feeding damage and/or 100% mortality) ([2]; sprayed at 250 ppm): very good to excellent levels of control efficacy

CC(C)c1nn(-c2cc(C(F)(F)F)ccn2)cc1CN1CCC(C(F)(F)F)CC1 [Compound 54, 2-[3-(1-methylethyl)-4-[[4-(trifluoromethyl)-1-piperidinyl]methyl]-1H-pyrazol-1-yl]-4-(trifluoromethyl)pyridine]
mortality at 50 ppm ([3]; sprayed at 50 ppm): ≥ 80%
mortality at 250 ppm [3]: ≥ 80%
mortality at 50 ppm ([4]; sprayed at 50 ppm): ≥ 80%
mortality at 250 ppm ([4]; sprayed at 250 ppm): ≥ 80%
